Data set [1] has as its system pancreatic adenocarcinoma cells. The experiment in a line: DNA synthesis by bromodeoxyuridine (BrdU) incorporation into adenocarcinoma cells. The data set is classed as cell-based, human. The conditions noted are these: 1 μM, 24 hours. The source says:
To investigate whether these peptide hormones were inhibiting DNA synthesis and cell proliferation bromodeoxyuridine (BrdU) incorporation into the adenocarcinoma cells was utilized. BrdU was from BD Bioscience, San Jose, Calif. DNA synthesis and doubling of the genome take place during the synthetic or S phase. BrdU is a thymidine analog incorporated into nuclear DNA during the S phase of the cell cycle. Immunohistochemical methods use BrdU also as a marker of cell proliferation in cancer biology studies. After 24 hours in culture with 1 μM of LANP, vessel dilator, kaliuretic peptide, or ANP, respectively, or with no peptide hormone (i.e., control), BrdU in a final concentration of 10 μM in the cell culture medium was added for 45 minutes—which is time in which the cells are in the logarithmic phase of cell proliferation. For immunohistochemistry, a BrdU in situ detection kit from Becton Dickinson Immunocytochemistry Systems, San Jose, Calif., was utilized.
After the 45 minutes with BrdU, the adenocarcinoma cells were washed three times in phosphate buffered saline (PBS), five minutes each. This was followed by placing the cells in a −80° C. freezer for five minutes and then 100% methanol was added at 5° C. in order for the cells to become permeable enabling the anti-BrdU antibody to reach the nucleus of the cell. The cells were then washed again in PBS before 100 μl of biotinylated anti-BrdU antibody was added. The coverslips were then incubated in a humidified chamber for one hour. After this incubation, the slides were rinsed in PBS, two minutes each. Then streptavidin-horseradish peroxidase (HRP) was added to each coverslip. The cells were then incubated for 30 minutes. Streptavidin-HRP binds to biotinylated anti-BrdU and HRP is used with addition of diaminobenzidine (DAB) substrate system to visualize BrdU incorporation into the adénocarcinoma cells. After the 30 minute incubation with streptavidin-HRP, the coverslips were rinsed in PBS, two minutes each time, before adding the DAB substrate solution, which contains DAB chromagen and DAB buffer, for five minutes. The coverslips were then rinsed in water, two minutes each time before counterstaining the slides with hematoxylin for 60 seconds followed by a thorough rinsing in water for five minutes. The incorporation of the BrdU stain into the nucleus was then counted using a Nikon Inverted Diaphot-TMD Microscope (Tokyo, Japan). The number of stained nuclei was compared in the four peptide hormone groups to the positive control group. The negative control for these studies was provided by Becton Dickinson Immunocytochemistry Systems.
BrdU has an advantage over ^3H-thymidine incorporation in that it takes less time and provides high resolution.
Cyclic GMP and prostaglandin E2 are the two known mediators of all of the previously described biologic effects of these four peptide hormones. All four of these peptide hormones-induced vasodilation of vasculature is mediated by increased cyclic GMP concentrations via enhancing guanylate cyclase activity. […] ANPs effects in the kidney are thought to be mediated by cyclic GMP. Each of these peptide hormones increase cyclic GMP while simultaneously dilating vasculature. 8 bromo-cyclic GMP reproduces these vasodilatory effects. For the present investigation of the mechanism of these peptide hormones' ability to inhibit DNA synthesis in cancer cells, 8-bromoguanosine 3′,5′-cyclic monophosphate (i.e., 8-bromo cyclic GMP, Sigma-Aldrich Co., St. Louis, Mo.) was utilized. 8-bromo cyclic GMP is a cell-permeable analog of cyclic GMP. 8-bromo cyclic GMP effects on DNA synthesis were investigated in dose-response curves with cyclic GMP concentrations ranging from 100 pM to 5 mM.
Prostaglandin E2, i.e., (5Z, 11α, 13E, 15S)-11, 15-dihydro-9-oxo-prosta-5, 13-dien-I-oic acid was purchased from Sigma-Aldrich, St. Louis, Mo. […]

Data set [2] deals with human pancreatic adenocarcinomas. The data set can be described thus: Growth of human pancreatic adenocarcinomas in vivo in athymic mice. More on the design: species or system NCr athymic nude mice. The source says:
The animals used in the whole animal studies were NCr athymic nude mice. The NCr athymic outbred stock is the standard athymic model for National Cancer Institute (NCI) studies as well as many pharmaceutical and institutional oncology screening programs. The nude gene in homozygous (nu/nu) mice causes the lack of fur and an abnormal thymus. The deficiency in T cell function allows athymic mice to accept and grow xenografts as well as allograftsof normal and malignant tissues. Heterozygous (nu/+) animals carry the recessive nude gene on one chromosome only and therefore have a normal thymus triggered immune system. NCr-nu breeder stock was obtained from the NCI in 1993 after several years of random breeding. It was hysterectomy derived to achieve germfree status prior to its introduction into IBU colonies. This outbred stock has both BALB/c inbred and NIH(S) outbred stock in its genetic background. The homozygotes (nu/nu) used for the proposed investigations are albino animals with the model number of NCRNU-M from […] also being called Tac:Cr:(NCr)-Foxn1^nu: Six week old nude mice were utilized for these studies as they weight approximately 20 grams at this time period and the subcutaneous pumps used to infuse the respective four atrial natriuretic peptides were designed for 20 gram and larger mice. These mice accept malignant tissues. After one week of accliminization to their new surroundings, the mice have 1×10^6 of the adenocarcinoma cells placed under the skin on their backs. […] Tumor volume was calculated by the formula V (volume)=a×b^2/2 where “a” is the largest superficial diameter and b is the smallest superficial diameter. […] When the tumors first became palpable their volume was recorded and then an osmotic pump (Alzet Model 1002) containing either 0.9% saline (control infusion) or one of the respective peptide hormones in 0.9% saline was placed subcutaneously between the shoulder blades under anesthesia (pentobarbital 40 mg/kg body wt intraperitoneally). […]

These results are taken from patent US6943147B2, “Cancer treatment using proANP peptides” (University of South Florida, priority 2003, dated 2005).

Take “vessel dilator: a.a. 31-67 of the 126 a.a. ANP prohormone; peptide hormone from Peninsula Laboratories”: the “inhibition of DNA synthesis” value in data set [1] was determined as 91%. Moreover, in data set [2] (139 ng/min/kg infusion in whole animals), the side effects result is given as “no side effects”. Further, in data set [2] (139 ng/min/kg of body weight, subcutaneous infusion pump, 14 days, n=14), the “growth of the human adenocarcinomas” value was “stopped the growth”. Moreover, the “change in tumor volume during the two weeks of infusion” value in data set [2] (139 ng/min/kg, 14 days, saline-treated increased 100 mm^3) is given as “no increase in volume”.
